Article PMC8396041, “A Michael Acceptor Analogue, SKSI-0412, Down-Regulates Inflammation and Proliferation Factors through Suppressing Signal Transducer and Activator of Transcription 3 Signaling in IL-17A-Induced Human Keratinocyte” (International Journal of Molecular Sciences, 2021)

Target: T1, STAT3 (Homo sapiens, UniProt P40763)
T1 construct: Recombinant human STAT3 protein (Abnova, cat no. H00006774-P01)
Assay: intrinsic fluorescence quenching titration (ex […] nm, em […] nm)
Type: binding

T1 sequence (P40763 2-770): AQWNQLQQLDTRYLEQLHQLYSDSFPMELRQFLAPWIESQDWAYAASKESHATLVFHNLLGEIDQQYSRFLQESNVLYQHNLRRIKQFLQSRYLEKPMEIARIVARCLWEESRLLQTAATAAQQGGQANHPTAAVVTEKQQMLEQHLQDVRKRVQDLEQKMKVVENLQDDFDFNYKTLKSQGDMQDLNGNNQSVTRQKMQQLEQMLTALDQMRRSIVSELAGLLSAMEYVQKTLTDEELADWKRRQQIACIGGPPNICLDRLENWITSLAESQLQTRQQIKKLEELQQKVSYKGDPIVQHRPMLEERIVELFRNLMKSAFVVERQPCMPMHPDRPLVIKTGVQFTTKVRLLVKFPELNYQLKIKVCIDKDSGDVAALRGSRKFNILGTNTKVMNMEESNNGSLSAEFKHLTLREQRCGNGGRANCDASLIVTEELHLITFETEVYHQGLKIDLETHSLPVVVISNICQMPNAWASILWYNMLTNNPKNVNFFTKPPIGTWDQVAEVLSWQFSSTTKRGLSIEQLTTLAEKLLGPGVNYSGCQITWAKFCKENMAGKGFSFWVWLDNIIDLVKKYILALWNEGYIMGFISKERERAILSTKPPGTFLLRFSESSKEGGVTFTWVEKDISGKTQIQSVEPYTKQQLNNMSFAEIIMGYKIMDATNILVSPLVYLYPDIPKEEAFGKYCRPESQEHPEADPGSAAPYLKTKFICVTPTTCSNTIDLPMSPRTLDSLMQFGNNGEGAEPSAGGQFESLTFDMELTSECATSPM

- Kd: 26.8 µM
SMILES: C=C(C(=O)c1ccc2c(c1)C=CC(C)(C)O2)c1ccc(OC)c(OC)c1 [compound 4, 2-(3,4-Dimethoxyphenyl)-1-(2,2-Dimethyl-2H-Chromen-6-yl)Prop-2-en-1-One]
